pIC50: −log10 of the molar value.
Experiments:
KRAS G12V = KRAS G12V (Homo sapiens, UniProt P01116, G12V); experiment: GDP-GTP exchange assay (bodipy-GDP/GppNHp, SOS1), KRAS G12V; type: biochemical; conditions: bodipy-loaded KRAS G12V 2.5 nM, 3 hours incubation after adding GppNHp-SOS1; read-out: G12V_exchange IC50
Procedure: (§1) The inhibitor potency of the exemplified compounds was determined in a fluorescence based guanine nucleotide exchange assay, which measures the exchange of bodipy-GDP (fluorescently labeled GDP) for GppNHp (Non-hydrolyzable GTP analog) to generate the active state of KRAS in the presence of SOS1 (guanine nucleotide exchange factor). Inhibitors were serially diluted in DMSO and a volume of 0.1 μL was transferred to the wells of a black low volume 384-well plate. 5 μL/well volume of bodipy-loaded KRAS G12D diluted to 2.5 nM in assay buffer (25 mM Hepes pH 7.5, 50 mM NaCl, 10 mM MgCl2 and 0.01% Brij-35) was added to the plate and pre-incubated with inhibitor for 4 hours at ambient temperature. Appropriate controls (enzyme with no inhibitor or with a G12D inhibitor) were included on the plate. The exchange was initiated by the addition of a 5 μL/well volume containing 1 mM GppNHp and 300 nM SOS1 in assay buffer. The 10 μL/well reaction concentration of the bodipy-loaded KRAS G12D, GppNHp, and SOS1 were 2.5 nM, 500 uM, and 150 nM, respectively. The reaction plates were incubated at ambient temperature for 2 hours, a time estimated for complete GDP-GTP exchange in the absence of inhibitor. For the KRAS G12V mutant, similar guanine nucleotide exchange assays were used with 2.5 nM as final concentration for the bodipy loaded KRAS proteins and 3 hours incubation after adding GppNHp-SOS1 mixture. A cyclic peptide described to selectively bind G12D mutant (Sakamoto et al., BBRC 484.3 (2017), 605-611) or internal compounds with confirmed binding were used as positive controls in the assay plates. Fluorescence intensities were measured on a PheraStar plate reader instrument (BMG Labtech) with excitation at 485 nm and emission at 520 nm.
(§2) Either GraphPad prism or Genedata Screener SmartFit was used to analyze the data. The IC50 values were derived by fitting the data to a four parameter logistic equation producing a sigmoidal dose-response curve with a variable Hill coefficient.
(§3) The symbol “†” indicates IC50≤100 nM, “††” indicates IC50>100 nM but ≤1 μM; and “†††” indicates IC50 is >1 μM but ≤5 μM, “††††” indicates IC50 is >5 μM but ≤10 μM. “NA” indicates IC50 not available.

KRAS G12D = KRAS G12D (Homo sapiens, UniProt P01116, G12D); experiment: GDP-GTP exchange assay (bodipy-GDP/GppNHp, SOS1), KRAS G12D; type: biochemical; conditions: bodipy-loaded KRAS G12D 2.5 nM, 4 hours pre-incubation with inhibitor, 2 hours after GppNHp/SOS1; read-out: G12D_exchange IC50
Procedure: as §1, §2, §3

Sequence of KRAS G12V (P01116 1-188 isoform P01116-2 G12V): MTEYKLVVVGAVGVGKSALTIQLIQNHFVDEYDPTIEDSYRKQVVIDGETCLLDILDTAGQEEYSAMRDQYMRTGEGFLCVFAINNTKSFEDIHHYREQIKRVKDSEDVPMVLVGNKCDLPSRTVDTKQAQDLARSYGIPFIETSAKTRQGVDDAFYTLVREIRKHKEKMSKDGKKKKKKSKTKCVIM
Sequence of KRAS G12D (P01116 1-188 isoform P01116-2 G12D): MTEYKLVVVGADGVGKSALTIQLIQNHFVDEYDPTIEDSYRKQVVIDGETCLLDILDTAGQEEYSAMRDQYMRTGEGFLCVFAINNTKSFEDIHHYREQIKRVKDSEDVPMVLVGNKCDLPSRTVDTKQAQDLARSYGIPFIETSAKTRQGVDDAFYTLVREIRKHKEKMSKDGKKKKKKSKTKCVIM

| Structure (SMILES) | pIC50 (KRAS G12V) | pIC50 (KRAS G12D) |
| --- | --- | --- |
| CN(C)C(=O)CCc1nc2c(N3CC(N(C)C)C3)nc3c(F)c(-c4cccc5c4CC(F)(F)CC5)c(CCC#N)cc3c2n1[C@@H]1[C@@H]2CN[C@H]1C2 (relative stereo) [Example 33, 3-(1-endo-(2-azabicyclo[2.1.1]hexan-5-yl)-8-(2-cyanoethyl)-7-(7,7-difluoro-5,6,7,8-tetrahydronaphthalen-1-yl)-4-(3-(dimethylamino)azetidin-1-yl)-6-fluoro-1H-imidazo[4,5-c]quinolin-2-yl)-N,N-dimethylpropanamide] | 5.30 to 6.00 | ≥ 7.00 |
| Cc1cc2c(nc(N3CC(N(C)C)C3)c3nc(CCC(=O)N4CCN(c5ncccn5)CC4)n(C4C5CNC4C5)c32)c(F)c1-c1cc(O)cc2ccccc12 (single isomer, unassigned) [Example 2a, 3-(1-((endo)-2-azabicyclo[2.1.1]hexan-5-yl)-4-(3-(dimethylamino)azetidin-1-yl)-6-fluoro-7-(3-hydroxynaphthalen-1-yl)-8-methyl-1H-imidazo[4,5-c]quinolin-2-yl)-1-(4-(pyrimidin-2-yl)piperazin-1-yl)propan-1-one] | 5.30 to 6.00 | ≥ 7.00 |
| CN(C)C1CN(c2nc3c(F)c(-c4cc(O)cc5ccccc45)c(CCC#N)cc3c3c2nc(CCC(=O)N2CC4(CCOCC4)C2)n3C2C3CNC2C3)C1 (single isomer, unassigned) [Example 3a, 3-(1-((endo)-2-azabicyclo[2.1.1]hexan-5-yl)-4-(3-(dimethylamino)azetidin-1-yl)-6-fluoro-7-(3-hydroxynaphthalen-1-yl)-2-(3-oxo-3-(7-oxa-2-azaspiro[3.5]nonan-2-yl)propyl)-1H-imidazo[4,5-c]quinolin-8-yl)propanenitrile] | ≥ 7.00 | ≥ 7.00 |
| CC(=O)N1CCN(C(=O)CCc2nc3c(N4CC(N(C)C)C4)nc4c(F)c(-c5cc(O)cc6ccccc56)c(CCC#N)cc4c3n2C2C3CNC2C3)CC1 (single isomer, unassigned) [Example 4a, 3-(2-(3-(4-acetylpiperazin-1-yl)-3-oxopropyl)-1-((endo)-2-azabicyclo[2.1.1]hexan-5-yl)-4-(3-(dimethylamino)azetidin-1-yl)-6-fluoro-7-(3-hydroxynaphthalen-1-yl)-1H-imidazo[4,5-c]quinolin-8-yl)propanenitrile] | ≥ 7.00 | ≥ 7.00 |
| CN(C)C1CN(c2nc3c(F)c(-c4cc(O)cc5ccccc45)c(CCC#N)cc3c3c2nc(CN2CCCC2=O)n3C2C3CNC2C3)C1 (single isomer, unassigned) [Example 5a, 3-(1-((endo)-2-azabicyclo[2.1.1]hexan-5-yl)-4-(3-(dimethylamino)azetidin-1-yl)-6-fluoro-7-(3-hydroxynaphthalen-1-yl)-2-((2-oxopyrrolidin-1-yl)methyl)-1H-imidazo[4,5-c]quinolin-8-yl)propanenitrile] | ≥ 7.00 | ≥ 7.00 |
| CCc1nc2c(N3CC(N(C)C)C3)nc3c(F)c(-c4cc(O)cc5ccccc45)c(-c4cnco4)cc3c2n1C1C2CNC1C2 (single isomer, unassigned) [Example 6a, 4-(1-((endo)-2-azabicyclo[2.1.1]hexan-5-yl)-4-(3-(dimethylamino)azetidin-1-yl)-2-ethyl-6-fluoro-8-(oxazol-5-yl)-1H-imidazo[4,5-c]quinolin-7-yl)naphthalen-2-ol] | 5.00 to 5.30 | 6.00 to 7.00 |
| CCc1nc2c(N3CC(N(C)C)C3)nc3c(F)c(-c4cc(O)cc5ccccc45)c(C(CC#N)n4cccn4)cc3c2n1C1C2CNC1C2 (single isomer, unassigned) [Example 7a, 3-(1-((endo)-2-azabicyclo[2.1.1]hexan-5-yl)-4-(3-(dimethylamino)azetidin-1-yl)-2-ethyl-6-fluoro-7-(3-hydroxynaphthalen-1-yl)-1H-imidazo[4,5-c]quinolin-8-yl)-3-(1H-pyrazol-1-yl)propanenitrile] | 6.00 to 7.00 | ≥ 7.00 |
| CCc1nc2c(N3CC(N(C)C)C3)nc3c(F)c(-c4cc(O)cc5ccccc45)c(C(CC#N)n4cc(CO)cn4)cc3c2n1C1C2CNC1C2 (single isomer, unassigned) [Example 8b, 3-(1-((endo)-2-azabicyclo[2.1.1]hexan-5-yl)-4-(3-(dimethylamino)azetidin-1-yl)-2-ethyl-6-fluoro-7-(3-hydroxynaphthalen-1-yl)-1H-imidazo[4,5-c]quinolin-8-yl)-3-(4-(hydroxymethyl)-1H-pyrazol-1-yl)propanenitrile] | 6.00 to 7.00 | ≥ 7.00 |
| CCc1nc2c(-c3ccc(=O)n(CC)c3)nc3c(F)c(-c4cc(O)cc5ccccc45)c(CCC#N)cc3c2n1C1C2CNC1C2 (single isomer, unassigned) [Example 18, 3-(1-((endo)-2-Azabicyclo[2.1.1]hexan-5-yl)-2-ethyl-4-(1-ethyl-6-oxo-1,6-dihydropyridin-3-yl)-6-fluoro-7-(3-hydroxynaphthalen-1-yl)-1H-imidazo[4,5-c]quinolin-8-yl)propanenitrile] | ≥ 7.00 | ≥ 7.00 |
| CCc1nc2c(-c3ccc(C(=O)NC)nc3)nc3c(F)c(-c4cc(O)cc5ccccc45)c(CCC#N)cc3c2n1C1C2CNC1C2 (single isomer, unassigned) [Example 19a, 5-(1-((endo)-2-Azabicyclo[2.1.1]hexan-5-yl)-8-(2-cyanoethyl)-2-ethyl-6-fluoro-7-(3-hydroxynaphthalen-1-yl)-1H-imidazo[4,5-c]quinolin-4-yl)-N-methylpicolinamide] | ≥ 7.00 | ≥ 7.00 |
| CCc1nc2c(-c3ncco3)nc3c(F)c(-c4cc(O)cc5ccccc45)c(CCC#N)cc3c2n1C1C2CNC1C2 (single isomer, unassigned) [Example 20a, 3-(1-((endo)-2-Azabicyclo[2.1.1]hexan-5-yl)-2-ethyl-6-fluoro-7-(3-hydroxynaphthalen-1-yl)-4-(oxazol-2-yl)-1H-imidazo[4,5-c]quinolin-8-yl)propanenitrile] | 6.00 to 7.00 | ≥ 7.00 |
| CCc1nc2c(-c3ccn4ncnc4c3)nc3c(F)c(-c4cc(O)cc5ccccc45)c(CCC#N)cc3c2n1C1C2CNC1C2 (single isomer, unassigned) [Example 21a, 3-(4-([1,2,4]Triazolo[1,5-a]pyridin-7-yl)-1-((endo)-2-azabicyclo[2.1.1]hexan-5-yl)-2-ethyl-6-fluoro-7-(3-hydroxynaphthalen-1-yl)-1H-imidazo[4,5-c]quinolin-8-yl)propanenitrile] | ≥ 7.00 | ≥ 7.00 |
| CCc1nc2c(-c3ccnc(N4CCN(C)CC4)c3)nc3c(F)c(-c4cc(O)cc5ccccc45)c(CCC#N)cc3c2n1C1C2CNC1C2 (single isomer, unassigned) [Example 22a, 3-(1-((endo)-2-Azabicyclo[2.1.1]hexan-5-yl)-2-ethyl-6-fluoro-7-(3-hydroxynaphthalen-1-yl)-4-(2-(4-methylpiperazin-1-yl)pyridin-4-yl)-1H-imidazo[4,5-c]quinolin-8-yl)propanenitrile] | 6.00 to 7.00 | ≥ 7.00 |
| CCc1nc2c(C)nc3c(F)c(-c4cc(O)cc5ccccc45)c(CCC#N)cc3c2n1C1C2CNC1C2 (single isomer, unassigned) [Example 23a, 3-(1-((endo)-2-Azabicyclo[2.1.1]hexan-5-yl)-2-ethyl-6-fluoro-7-(3-hydroxynaphthalen-1-yl)-4-methyl-1H-imidazo[4,5-c]quinolin-8-yl)propanenitrile] | ≥ 7.00 | ≥ 7.00 |
| CCc1nc2c(Oc3ccccc3)nc3c(F)c(-c4cc(O)cc5ccccc45)c(CCC#N)cc3c2n1C1C2CNC1C2 (single isomer, unassigned) [Example 24a, 3-(1-((endo)-2-Azabicyclo[2.1.1]hexan-5-yl)-2-ethyl-6-fluoro-7-(3-hydroxynaphthalen-1-yl)-4-phenoxy-1H-imidazo[4,5-c]quinolin-8-yl)propanenitrile] | 6.00 to 7.00 | ≥ 7.00 |
| CN(C)C1CN(c2nc3c(F)c(-c4cc(O)cc5ccccc45)c(CCC#N)cc3c3c2nc(C2CC2)n3C2C3CNC2C3)C1 (single isomer, unassigned) [Example 25a, 3-(1-((endo)-2-Azabicyclo[2.1.1]hexan-5-yl)-2-cyclopropyl-4-(3-(dimethylamino)azetidin-1-yl)-6-fluoro-7-(3-hydroxynaphthalen-1-yl)-1H-imidazo[4,5-c]quinolin-8-yl)propanenitrile] | 6.00 to 7.00 | ≥ 7.00 |

Source: US12600717B2, “Tricyclic compounds as inhibitors of KRAS” (Incyte Corporation, priority 2021, dated 2026)
